Source: US12558324B2, “Application of R-ketamine and salt thereof as pharmaceuticals” (National University Corporation Chiba University, priority 2013, dated 2026)

Tests used:
[1] = test system: Control C57/B6 mice; assay: Conditioned place preference test in control mice (dependence); conditions: injected on day 4, 6, 8, evaluation on day 11, vs saline
Method: 15-minute habituation was performed for 3 days. Then, 30-minute conditioning was performed on day 4 to day 10, and a behavioral evaluation test was performed on day 11. Saline was injected on day 5, day 7, and day 9. […] In each of the groups, the injection was performed three times, i.e., on day 4, day 6, and day 8. Saline means a group injected with saline. In the group, the injection was performed three times, i.e., on day 5, day 7, and day 9.
The place preference test was performed using a conditioned place preference test apparatus (BrainSienceIdea Co., Ltd., Osaka, Japan).

[2] = test system: treatment-resistant patients with MDD; conditions: cited from earlier work; for effective oral dose in patients with depression: Non Patent Literatures 15 and 16
[3] = test system: treatment-resistant obsessive-compulsive disorder and treatment-resistant posttraumatic stress disorder; conditions: treatment-resistant patients; Non Patent Literatures 6 to 8; cited from earlier work
[4] = test system: Control C57/B6 mice; assay: Locomotion-enhancing effect in control mice (side effect); format: in vivo; conditions: for locomotion (count/10 min) after injection: vs saline
Method: An effect of ketamine on the locomotion of mice was tested using SCANET MV-40 ([…] Co., Ltd., Toyama, Japan). Specifically, the locomotion was measured for a total of 180 minutes, i.e., 60 minutes before injection to 120 minutes after injection, and calculated as a locomotion per 10 minutes.

[5] = test system: healthy volunteers; conditions: Non Patent Literature 13, cited from earlier work; for cerebral metabolic rates of glucose (CMRglu), PET: intravenous infusion of 15 mg for 5 min, then 0.014 to 0.02 mg/kg/min for 53 min (S), equimolar doses (R)
[6] = known property of both isomers; cited from earlier work
[7] = test system: mice exposed neonatally to DEX; assay: Tail suspension test (TST) in DEX-treated mice; conditions: for immobility time in the TST: DEX-treated juvenile mice, 10 mg/kg i.p. single injection, vs saline
Method: (§1) On the final day of this period, the females were placed in isolation and checked daily around the expected delivery day. The day of birth was defined as day 0. The mice were injected intraperitoneally with DEX (Wako Pure Chemical Industries, Ltd., Tokyo, Japan) dissolved in saline on day 1, day 2, and day 3 at doses of 0.5 mg/kg body weight, 0.3 mg/kg body weight, and 0.1 mg/kg body weight, respectively. In addition, normal controls were injected with equal volumes (10 ml/kg) of saline.
(§2) The TST was performed as described below. […] The FST was performed as described below. […] The cages were cleaned between testing session.

[8] = test system: mice exposed neonatally to DEX; assay: Forced swimming test (FST) in DEX-treated mice; conditions: for immobility time in the FST: DEX-treated juvenile mice, 10 mg/kg i.p. single injection, vs saline
Method: as §1, §2

[9] = test system: Control C57/B6 mice; assay: Prepulse inhibition test in control mice (side effect); conditions: 5, 10, or 20 mg/kg, prepulses 69, 73, 77, 81 dB before 110-dB pulse, vs saline
Method: PP69, PP73, PP77, and PP81 mean that stimuli at 69, 73, 77, and 81 dB for more than 20 milliseconds were presented 100 milliseconds before a 110-dB pulse, respectively. Data analysis was performed by Wilks Lambda, which is multivariate analysis of variance.
The prepulse inhibition test was performed using a startle response system (SR-LAB, SanDiego Instruments, San Diego, CA, United States).

[10] = test system: social defeat stress mice; assay: Tail suspension test (TST) in social defeat stress mice; conditions: for immobility time in the TST: 10 mg/kg i.p. single injection, vs saline; for antidepressant effects compared to S(+)-ketamine, TST: 10 mg/kg i.p.
Method: as §2

[11] = test system: social defeat stress mice; assay: Forced swimming test (FST) in social defeat stress mice; conditions: for immobility time in the FST: 10 mg/kg i.p. single injection, vs saline; for antidepressant effects compared to S(+)-ketamine, FST: 10 mg/kg i.p.
Method: as §2

[12] = test system: social defeat stress mice; assay: 1% sucrose preference test (SPT) in social defeat stress mice; conditions: for sucrose consumption preference in the SPT: 10 mg/kg i.p. single injection, vs saline
Method: as §2

[13] = Non Patent Literature 12; cited from earlier work
[14] = Non Patent Literature 12; cited from earlier work; remark: listed apart in the source

SMILES	effective oral dose in patients with depression [2] [mg/kg]	conditioned place preference test score (CPP score) ([1]; 5, 10, or 20 mg/kg)	cerebral metabolic rates of glucose (CMRglu), PET [5]	immobility time in the TST ([7]; 27 hours after injection)	immobility time in the TST ([7]; 7 days after injection)	immobility time in the FST ([8]; 29 hours after injection)	immobility time in the FST ([8]; 7 days after injection)	prepulse inhibition [9]	immobility time in the TST ([10]; 2 days after injection)	immobility time in the TST ([10]; 7 days after injection)	immobility time in the FST ([11]; 2 days after injection)	immobility time in the FST ([11]; 7 days after injection)	sucrose consumption preference in the SPT ([12]; 1 day after injection)	sucrose consumption preference in the SPT ([12]; 6 days after injection)	further results
CNC1(c2ccccc2Cl)CCCCC1=O.Cl (racemic) [RS(+/−)-ketamine, ketamine hydrochloride]	0.5														conditioned place preference test score (CPP score) ([1]; 10 mg/kg): significantly increased the CPP score; effect on suicide ideation ([2]; Non Patent Literature 9): effect of inhibiting suicide ideation; duration of clinical antidepressant effects (other reports) ([2]; effects may last, Non Patent Literatures 3, 4, and 11): ≥ 2 weeks; antidepressant effect of intranasal administration ([2]; intranasal, treatment-resistant patients with MDD, Patent Literature 1 and Non Patent Literature 17): showed antidepressant effect; duration of clinical antidepressant effects ([2]; starting from several hours after single administration): 1 to 2 days; antidepressant effects in patients ([2]; treatment-resistant patients with MDD and depressive symptoms of treatment-resistant bipolar disorder, Non Patent Literatures 3 to 5): rapid and robust antidepressant effects; effect in obsessive-compulsive disorder and PTSD [3]: effective
CN[C@@]1(c2ccccc2Cl)CCCCC1=O.Cl [R(−)-ketamine, R(−)-ketamine hydrochloride]		did not increase the CPP score	tended to decrease CMRglu across brain regions	markedly reduced the immobility time	significantly reduced the immobility time	markedly reduced the immobility time	significantly reduced the immobility time	did not disrupt prepulse inhibition	markedly reduced the immobility time	significantly reduced the immobility time	markedly reduced the immobility time	significantly reduced the immobility time	the sucrose consumption preference significantly increased	significantly restored the sucrose consumption preference	locomotion (count/10 min) after injection ([4]; 5, 10, or 20 mg/kg, up to 120 minutes after injection): did not affect the locomotion; psychotic symptoms in PET study ([5]; doses equimolar to psychotomimetic doses of S(+)-ketamine): did not produce psychotic symptoms; in vivo clearance [6]: rapid in vivo clearance; antidepressant effects compared to S(+)-ketamine, TST ([7]; DEX-treated mice, 10 mg/kg i.p., 27 hours after injection, no significant difference): slightly high antidepressant effects as compared to those of S(+)-ketamine; antidepressant effects compared to S(+)-ketamine, FST ([8]; DEX-treated mice, 10 mg/kg i.p., 29 hours after injection, no significant difference): slightly high antidepressant effects as compared to those of S(+)-ketamine; difference between R(−)-ketamine and S(+)-ketamine, FST immobility time ([8]; DEX-treated mice, 10 mg/kg i.p., 7 days after injection): statistically significant; antidepressant effects compared to S(+)-ketamine, TST ([10]; 2 days after injection): significant high antidepressant effects as compared to those of S(+)-ketamine; antidepressant effects compared to S(+)-ketamine, TST ([10]; 7 days after injection): significantly high antidepressant effects as compared to S(+)-ketamine; antidepressant effects compared to S(+)-ketamine, FST ([11]; 2 days after injection): significant high antidepressant effects as compared to those of S(+)-ketamine; antidepressant effects compared to S(+)-ketamine, FST ([11]; 7 days after injection): significantly high antidepressant effects as compared to S(+)-ketamine; antidepressant effects compared to S(+)-ketamine, SPT ([12]; 10 mg/kg i.p., 1 day after injection): more potent than those of S(+)-ketamine; difference between R(−)-ketamine and S(+)-ketamine, SPT ([12]; 10 mg/kg i.p., 6 days after injection): statistically significant
CN[C@]1(c2ccccc2Cl)CCCCC1=O.Cl [S(+)-ketamine, S(+)-ketamine hydrochloride]	1.25	increased the CPP score in a dose-dependent manner	increased cerebral metabolic rates of glucose	markedly reduced the immobility time	did not reduce the immobility time	markedly reduced the immobility time	did not reduce the immobility time	disrupted prepulse inhibition in a dose-dependent manner	markedly reduced the immobility time	significantly reduced the immobility time	markedly reduced the immobility time	significantly reduced the immobility time	the sucrose consumption preference significantly increased	significantly restored the sucrose consumption preference	time after injection at which enhanced locomotion returned to a normal value ([4]; 10 mg/kg or 20 mg/kg): 30 min; locomotion (count/10 min) after injection ([4]; 10 mg/kg or 20 mg/kg, 10 minutes and 20 minutes after the injection): significant increase in locomotion; anesthetic effect as compared to R-isomer [13]: 3- to 4 fold; psychotomimetic side effects compared to R-isomer [14]: greater psychotomimetic side effects than R-isomer; antidepressant effects compared to RS(+/−)-ketamine (0.5 mg/kg, i.v.) ([2]; 0.25 mg/kg, i.v., treatment-resistant patients with MDD, case report, Non Patent Literature 14): weaker than those of RS(+/−)-ketamine
